Measured values taken from patent US12194039B2, “Methods of treating heart failure by administering omecamtiv mecarbil” (Cytokinetics, Inc., priority 2020, dated 2025).
Where two headings read alike, the source gives them in different places.

Test system: patients with HFrEF by ejection fraction quartile
Type: in vivo, human
Set-up: Change from baseline in KCCQ Total Symptom Score, least square mean / KCCQ Total Symptom Score Inpatient, Treatment Difference, least squares mean / KCCQ Total Symptom Score Outpatient, Treatment Difference, least squares mean / KCCQ Total Symptom Score, Treatment Difference, least squares mean: scale not given here
Settings: for Troponin I (Ratio) / Troponin I, Treatment Difference (95% CI) / Creatinine, Treatment Difference / Heart rate, Treatment Difference / KCCQ Total Symptom Score, Treatment Difference, least squares mean / NT-proBNP (Ratio) / Potassium, Treatment Difference / Systolic BP, Treatment Difference / KCCQ Total Symptom Score Inpatient, Treatment Difference, least squares mean / KCCQ Total Symptom Score Outpatient, Treatment Difference, least squares mean: baseline to Week 24; for Change from baseline in KCCQ Total Symptom Score, least square mean: Week 24
Protocol: Continuous variables were summarized via means and standard deviations or medians and interquartile ranges, as appropriate. Categorical variables are summarized with counts and percentages. Tests of trend across categories were conducted via linear regression, Cuzick's non-parametric trend test, and Chi-squared tests of trend, respectively. Treatment effects on continuous outcomes were assessed via linear regression models adjusted for the corresponding baseline value of the parameter of interest. Survival analyses were conducted using Poisson regression models to estimate incidence rates, rate differences, and rate ratios and Cox proportional hazards models to estimate hazard ratios. […] To allow for potentially non-linear associations between ejection fraction and time-to-event outcomes, restricted cubic splines were utilized in the Poisson regression models with 3 knots. All analyses were conducted using STATA 16 (College Station, Tex.). P-values <0.05 were considered statistically significant. Due to the exploratory nature of these analyses, no adjustments were made for multiple comparisons.
Within each randomization setting subgroup least squares mean is from the mixed model which includes baseline total symptom score value, region, baseline eGFR, scheduled visit, treatment group and interaction of treatment with scheduled visit as covariates. Influence of Ejection Fraction on the Treatment Effect of Omecamtiv Mecarbil

COC(=O)N1CCN(Cc2cccc(NC(=O)Nc3ccc(C)nc3)c2F)CC1 [omecamtiv mecarbil]
Troponin I (Ratio) (EF 29-32%, vs placebo): 1.27 | Troponin I, Treatment Difference (95% CI) (EF 29-32%, vs placebo): 4 (3, 5) ng/L | Adjudicated First Major Cardiac Ischemic Events, % (EF 33%, OM group): 6.5% | Adjudicated First Stroke, % (EF 33%, OM group): 1.8% | Adverse Event: Ventricular Tachyarrhythmia, % (EF 33%, OM group): 6.4% | Any treatment Emergent Serious Adverse Events, % (EF 33%, OM group): (55.5%) | Positively Adjudicated Myocardial Infarction, % (EF 33%, OM group): 3.8% | Serious Adverse Event: Ventricular Arrhythmia Requiring Treatment, % (EF 33%, OM group): 2.5% | Adjudicated First Major Cardiac Ischemic Events, Relative Risk (EF 33%, OM vs placebo): 0.99 | Adjudicated First Stroke, Relative Risk (EF 33%, OM vs placebo): 0.77 | Adverse Event: Ventricular Tachyarrhythmia, Relative Risk (EF 33%, OM vs placebo): 0.88 | Any treatment Emergent Serious Adverse Events, Relative Risk (EF 33%, OM vs placebo): 1.02 | Positively Adjudicated Myocardial Infarction, Relative Risk (EF 33%, OM vs placebo): 1.02 | Serious Adverse Event: Ventricular Arrhythmia Requiring Treatment, Relative Risk (EF 33%, OM vs placebo): 1.11 | 1st HF Hospitalization (%) (EF ≤22%, OM group): (30%) | 1st HF Hospitalization Rate (EF ≤22%, OM group): 20.9 per 100 patient years | 1st HF Hospitalization n/N (EF ≤22%, OM group): 340/1127 | First HF Event (%) (EF ≤22%, OM group): (31%) | First HF Event Rate (EF ≤22%, OM group): 21.7 per 100 patient years | First HF Event n/N (EF ≤22%, OM group): 351/1127 | Primary Outcome (%) (EF ≤22%, OM group): (41%) | Primary Outcome Rate (EF ≤22%, OM group): 28.3 per 100 patient years | Primary Outcome n/N (EF ≤22%, OM group): 457/1127 | Total HF Events, Events (EF ≤22%, OM group): 719 | Total HF Events, Rate (EF ≤22%, OM group): 37.1 per 100 pt-yrs | Total HF Hospitalizations, Events (EF ≤22%, OM group): 679 | Total HF Hospitalizations, Rate (EF ≤22%, OM group): 35.1 per 100 pt-yrs | 1st HF Hospitalization ARR (EF ≤22%, OM vs placebo): 6.1 per 100 patient years | 1st HF Hospitalization HR (95% CI) (EF ≤22%, OM vs placebo): 0.82 (0.71, 0.94) | First HF Event ARR (EF ≤22%, OM vs placebo): 6.6 per 100 patient years | First HF Event HR (95% CI) (EF ≤22%, OM vs placebo): 0.81 (0.70, 0.93) | Primary Outcome ARR (EF ≤22%, OM vs placebo): 7.4 per 100 patient years | Primary Outcome HR (95% CI) (EF ≤22%, OM vs placebo): 0.83 (0.73, 0.95) | Total HF Events, ARR (EF ≤22%, OM vs placebo): 11.3 per 100 pt-yrs | Total HF Events, Ratio (95% CI) (EF ≤22%, OM vs placebo): 0.83 (0.70, 1.01) | Total HF Hospitalizations, ARR (EF ≤22%, OM vs placebo): 9.9 per 100 pt-yrs | Total HF Hospitalizations, Ratio (95% CI) (EF ≤22%, OM vs placebo): 0.84 (0.70, 1.01) | Creatinine, Treatment Difference (EF ≤22%, vs placebo): -0.01 mg/dL | Heart rate, Treatment Difference (EF ≤22%, vs placebo): −1.6 bpm | KCCQ Total Symptom Score, Treatment Difference, least squares mean (EF ≤22%, vs placebo): +1.6 | NT-proBNP (Ratio) (EF ≤22%, vs placebo): 0.78 | Potassium, Treatment Difference (EF ≤22%, vs placebo): 0.01 mmol/L | Systolic BP, Treatment Difference (EF ≤22%, vs placebo): 0.9 mmHg | Troponin I (Ratio) (EF ≤22%, vs placebo): 1.19 | Troponin I, Treatment Difference (95% CI) (EF ≤22%, vs placebo): 5 (4, 6) ng/L | 1st HF Hospitalization (%) (EF ≥33%, OM group): 26% | 1st HF Hospitalization Rate (EF ≥33%, OM group): 15.5 per 100 patient years | 1st HF Hospitalization n/N (EF ≥33%, OM group): 228/892 | All-cause Death (%) (EF ≥33%, OM group): 22% | All-cause Death Rate (EF ≥33%, OM group): 11.8 per 100 patient years | All-cause Death n/N (EF ≥33%, OM group): 200/892 | First HF Event (%) (EF ≥33%, OM group): 26% | First HF Event Rate (EF ≥33%, OM group): 16.2 per 100 patient years | First HF Event n/N (EF ≥33%, OM group): 236/892 | Primary Outcome (%) (EF ≥33%, OM group): 33% | Primary Outcome Rate (EF ≥33%, OM group): 20.5 per 100 patient years | Primary Outcome n/N (EF ≥33%, OM group): 298/892 | Total HF Events, Events (EF ≥33%, OM group): 483 | Total HF Events, Rate (EF ≥33%, OM group): 28.5 per 100 pt-yrs | Total HF Hospitalizations, Events (EF ≥33%, OM group): 449 | Total HF Hospitalizations, Rate (EF ≥33%, OM group): 26.5 per 100 pt-yrs | 1st HF Hospitalization ARR (EF ≥33%, OM vs placebo): −1.2 per 100 patient years | 1st HF Hospitalization HR (95% CI) (EF ≥33%, OM vs placebo): 1.03 (0.85, 1.24) | All-cause Death ARR (EF ≥33%, OM vs placebo): −0.1 per 100 patient years | All-cause Death HR (95% CI) (EF ≥33%, OM vs placebo): 0.98 (0.80, 1.20) | First HF Event ARR (EF ≥33%, OM vs placebo): −1.3 per 100 patient years | First HF Event HR (95% CI) (EF ≥33%, OM vs placebo): 1.04 (0.86, 1.25) | Primary Outcome ARR (EF ≥33%, OM vs placebo): −0.4 per 100 patient years | Primary Outcome HR (95% CI) (EF ≥33%, OM vs placebo): 0.99 (0.84, 1.16) | Total HF Events, ARR (EF ≥33%, OM vs placebo): −4.7 per 100 pt-yrs | Total HF Events, Ratio (95% CI) (EF ≥33%, OM vs placebo): 1.13 (0.90, 1.43) | Total HF Hospitalizations, ARR (EF ≥33%, OM vs placebo): −3.6 per 100 pt-yrs | Total HF Hospitalizations, Ratio (95% CI) (EF ≥33%, OM vs placebo): 1.12 (0.89, 1.43) | Creatinine, Treatment Difference (EF ≥33%, vs placebo): 0.02 mg/dL | Heart rate, Treatment Difference (EF ≥33%, vs placebo): −1.1 bpm | KCCQ Total Symptom Score, Treatment Difference, least squares mean (EF ≥33%, vs placebo): −1.0 | NT-proBNP (Ratio) (EF ≥33%, vs placebo): 0.97 | Potassium, Treatment Difference (EF ≥33%, vs placebo): 0.02 mmol/L | Systolic BP, Treatment Difference (EF ≥33%, vs placebo): −1.2 mmHg | Troponin I (Ratio) (EF ≥33%, vs placebo): 1.27 | Troponin I, Treatment Difference (95% CI) (EF ≥33%, vs placebo): 3 (2, 4) ng/L | Change from baseline in KCCQ Total Symptom Score, least square mean (Inpatient, EF 23-28%): 21.51 | KCCQ Total Symptom Score Inpatient, Treatment Difference, least squares mean (Inpatient, EF 23-28%, vs placebo): +0.2 | Change from baseline in KCCQ Total Symptom Score, least square mean (Inpatient, EF 29-32%): 22.34 | KCCQ Total Symptom Score Inpatient, Treatment Difference, least squares mean (Inpatient, EF 29-32%, vs placebo): +4.8 | Change from baseline in KCCQ Total Symptom Score, least square mean (Inpatient, EF ≤22%): 27.70 | KCCQ Total Symptom Score Inpatient, Treatment Difference, least squares mean (Inpatient, EF ≤22%, vs placebo): +4.9 | Change from baseline in KCCQ Total Symptom Score, least square mean (Inpatient, EF ≥33%): 22.09 | KCCQ Total Symptom Score Inpatient, Treatment Difference, least squares mean (Inpatient, EF ≥33%, vs placebo): −0.0 | Change from baseline in KCCQ Total Symptom Score, least square mean (Outpatient, EF 23-28%): 5.61 | KCCQ Total Symptom Score Outpatient, Treatment Difference, least squares mean (Outpatient, EF 23-28%, vs placebo): −0.6 | Change from baseline in KCCQ Total Symptom Score, least square mean (Outpatient, EF 29-32%): 5.30 | KCCQ Total Symptom Score Outpatient, Treatment Difference, least squares mean (Outpatient, EF 29-32%, vs placebo): −0.8 | Change from baseline in KCCQ Total Symptom Score, least square mean (Outpatient, EF ≤22%): 7.08 | KCCQ Total Symptom Score Outpatient, Treatment Difference, least squares mean (Outpatient, EF ≤22%, vs placebo): +0.7 | Change from baseline in KCCQ Total Symptom Score, least square mean (Outpatient, EF ≥33%): 5.18 | KCCQ Total Symptom Score Outpatient, Treatment Difference, least squares mean (Outpatient, EF ≥33%, vs placebo): −1.5 | Increase in troponin I, median (across the EF quartiles, limit of detection 6 ng/L, upper reference limit 40 ng/L): 3 to 5 ng/L | Incidence of adverse events, omecamtiv mecarbil vs placebo (by EF quartile, result in words): no significant differences | Effect on symptoms as assessed by the KCCQ-TSS as a function of EF (inpatient or outpatient settings, result in words): no consistent beneficial effect | Absolute risk reduction, primary composite endpoint (lowest ejection fraction quartile): 7.4 events per 100 patient-years | Relative risk reduction, primary composite endpoint (lowest ejection fraction quartile (EF ≤22%)): 17% | Number-needed-to-treat to prevent an event (over 3 years, lowest ejection fraction quartile): 11.8 | Effect on cardiovascular death (overall population and as a function of baseline ejection fraction, result in words): no overall effect | Primary endpoint, hazard ratio (patients with EF ≤28%, vs placebo): 0.84 | Primary endpoint, hazard ratio (patients with EF>28%, vs placebo): 1.04 | Reduction in time-to-first heart failure event or cardiovascular death (primary endpoint) (patients with ejection fraction ≤28% (below the median)): 16% | Effect on all-cause mortality (result in words): no effect | Relative risk reduction, primary composite endpoint (second lowest ejection fraction quartile (EF 23-28%)): 15% | Incidence of adjudicated stroke (vs placebo, result in words): apparent reduction | Change of NT-proBNP (week 24, highest EF quartile): 3% | Reduction of NT-proBNP (week 24, lowest EF quartile (≤22%)): 22%
